This passage reports IC50 results from US4904660A, “Histidine derivatives as superior renin inhibitors” (Yamanouchi Pharmaceutical Co., Ltd., priority 1987, dated 1990).

The structures appear in SMILES notation.

This assay concerns the target T1, human plasma renin (Homo sapiens, UniProt P00797).
T1 construct: Into human plasma; from tissue; host or cells: human plasma
T1 sequence (P00797 67-406): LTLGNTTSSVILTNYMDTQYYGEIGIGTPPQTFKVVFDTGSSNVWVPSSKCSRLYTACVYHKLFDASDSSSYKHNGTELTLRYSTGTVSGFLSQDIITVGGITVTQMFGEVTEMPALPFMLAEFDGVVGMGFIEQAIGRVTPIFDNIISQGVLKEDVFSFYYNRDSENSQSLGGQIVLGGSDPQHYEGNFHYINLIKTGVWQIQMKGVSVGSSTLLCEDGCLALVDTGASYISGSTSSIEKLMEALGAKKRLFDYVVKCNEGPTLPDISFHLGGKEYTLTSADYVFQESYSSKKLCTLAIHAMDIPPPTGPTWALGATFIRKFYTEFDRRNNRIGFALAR
The experiment in a line: Inhibiting effect to human plasma renin. Type of assay: biochemical. Conditions: angiotensin I formation by radio-immunoassay, 37° C., 2 hours, pH4.6, read-out: IC50 /human plasma (50% inhibiting concentration). The procedure: (1) Inhibiting effect to human plasma renin.
Into human plasma (250 μl) having 0.5 ng/ml/hr (37° C.)-angiotensin I forming activity was added 225 μl of an enzyme-inhibitor (BAL, […], pH4.6) and 25 μl of a solution of the test compound in dimethylsulfoxide, and the mixture was stirred. Some portion of the stirred mixture was subjected to incubation at 37° C. for 2 hours, and the rest of the mixture was left at 4° C. Taking 100 μl of each of the mixtures, by measuring the difference of the angiotensin I forming amount by radio-immunoassay at 37° C. and 4° C., the 50% inhibiting concentration IC50 (M) was calculated.
Regarding `Cn1nnnc1SCC(O)[C@H](CC1CCCCC1)NC(=O)[C@H](Cc1cnc[nH]1)NC(=O)C(CC(=O)N1CCOCC1)Cc1cccc2ccccc12` (stereo partly drawn) [Example 7, (2RS,3S)-3-[N-[1,4-dioxo-4-morpholino-2-(1-naphthylmethyl)butyl-L-histidylamino)]-4-cyclohexyl-1-(1-methyl-5-tetrazolylthio]-2-butanol], the IC50 came out at 0.5 nM.

On to `Cn1nnnc1SCC(O)[C@H](CC1CCCCC1)NC(=O)[C@H](Cc1cnc[nH]1)NC(=O)[C@H](Cc1ccccc1)NC(=O)OC(C)(C)C` (stereo partly drawn) [Example 9], for which the IC50 was determined as 4 nM.

On to `CC(C)OC(=O)C(O)[C@H](CC1CCCCC1)NC(=O)[C@H](Cc1c[nH]cn1)NC(=O)C(CC(=O)N1CCOCC1)Cc1cccc2ccccc12` (stereo partly drawn) [Example 40], for which the IC50 stood at 4 nM.
